Test results reported in patent US11759412B2, “Personal care compositions with glutathione precursor comprising 4-substituted resorcinols and amino acids” (Conopco, Inc., priority 2016, dated 2023).
Blank lines part the entries; values can stand above or below the compound they belong to.

What was measured:
Type in all cases: cell-based
Human Keratinocytes [1] = test: Cell Viability Assay (CCK-8, menadione); settings: for Cell viability (% of vehicle of control): Table 2H; for % Protection (improvement vs vehicle control + menadione), cell viability / Cell viability (% of control): Table 2D
Method: Human Keratinocytes (Promocell, Heidelberg, Germany) were maintained in EpiLife® keratinocyte medium containing 60 uM calcium chloride and 1% Human Keratinocyte Growth Supplement (HKGS). The medium was refreshed every other day. Subsequently, cells were trypsinized at 90% confluency and seeded at a density of 2×10^4 per well into 96-well transparent tissue culture plates. On the second day after seeding, cell medium was replaced with treatments as described above in ROS assay section. After 18 hours, […] (CCK-8) reagent (Dojindo, Kumamoto, Japan) was diluted 1:10 in HBSS and incubated with cells for 4 h at 37° C. in a humidified incubator. Optical absorption at 450 nm was measured using a Tecan Safire2 plate reader. Relative viability was calculated with normalization based on the vehicle control treatment, which was set to 100%.
Where indicated, percent protection was calculated as a comparison to menadione alone treatment, using the measured relative absorbance units in the following equation: […]

Aged Human Keratinocytes = test: Glutathione Assay (total glutathione, GSH-GSSG Glo, menadione challenge); settings: for synergistic increase in GSH synthesis, combination with GAP amino acids vs either alone: resorcinol/test reagent combined with GAP, + menadione
Method: Aged Human Keratinocytes (Cascade Biologics, now ThermoFisher Scientific, Waltham, Mass.) were maintained in Epi Life® medium containing 60 uM calcium chloride and 1% Human Keratinocyte Growth Supplement (both media components from ThermoFisher Scientific) in a humidified incubator with an atmosphere containing 5% CO2 at 37° C. The medium was refreshed every 2-3 days. Subsequently, cells were trypsinized at 90% confluency and seeded at a density of 1×10^4 per well into 96-well plates with white wall and clear bottom. One or two days after seeding, cell medium was replaced with Hank's Balanced Salt Solution (HBSS), and keratinocytes were pre-treated with GAP (or 0.12-0.240 mM sodium hydroxide vehicle control, pH 7.5) alone or in combination with additional test reagents described above or L-cystine esters alone for 1-2 hours. The concentration of all amino acids constituting the GAP mixture used in this assay are designated in the data tables, and fully described in the abbreviations list below.
After one or two hours of pre-treatment with GAP or additional test reagents, alone or in combination, keratinocytes were then challenged with 25 uM menadione (Sigma-Aldrich), a known inducer of oxidative stress. After 18-20 hours, cells were harvested and analyzed for total glutathione levels using a commercially available kit (GSH-GSSG GLo Assay, Promega), a luminescence-based system for the detection and quantification of total glutathione in cultured cells. In summary, after cell treatment, the media was removed and replaced with a cell lysis reagent for 5 minutes at 20-25° C.; note, all remaining steps were also conducted at 20-25° C. Next, a luciferase generation reagent was added to each well and incubated for 30 minutes. Following this step, a luciferin detection reagent was added to each well and plates were incubated for 15 minutes. Finally, plates were then read for luminescence in a FlexStation 3 plate reader (Molecular Devices). Total glutathione levels were calculated after interpolation of glutathione concentrations from a standard curve. Experimental conditions were typically conducted in at least triplicate determinations. Statistical significance was calculated using 1-way ANOVA. Percent protection was calculated by using the calculated glutathione levels from each experiment in the following equation: […]

Human Keratinocytes [2] = test: Reactive Oxygen Species (ROS) Assay (CellROX green, menadione); settings: for synergistic decrease in ROS production, combination with GAP amino acids vs either alone: resorcinol/test reagent combined with GAP, + menadione
Method: Human Keratinocytes (Promocell, Heidelberg, Germany) were maintained in EpiLife® keratinocyte medium containing 60 uM calcium chloride and 1% Human Keratinocyte Growth Supplement (HKGS) in a humidified incubator with an atmosphere containing 5% CO2 at 37° C. The medium was refreshed every other day. Subsequently, cells were trypsinized at 90% confluency and seeded at a density of 1-2×10^4 per well into 96-well plates with black wall and clear bottom. On the second day after seeding, cell medium was replaced with Hank's Balanced Salt Solution (HBSS) with or without menadione (10-25 uM), GAP (typically at 49 uM pyroglutamic acid, 60 uM cystine, 194 uM glycine), GAP vehicle (0.2 mM NaOH, pH 7.5), above-described additional test reagents, or combinations of GAP with additional test reagents or L-cystine esters alone, and incubated for additional 18 hours. For ROS detection, CellROX green (Life Tech, Thermo Fisher Scientific, Rockford, USA) reagent was added into each well to a final concentration of 15-25 uM and incubated for additional 2-4 hours at 37° C. in a humidified incubator. The ROS fluorescence was detected using a Tecan microplate reader (Excitation/Emission=490/525). Relative ROS production was calculated with normalization based on the vehicle control treatment which was set to 100%. Where indicated, percent protection was calculated as a comparison to menadione alone treatment, using the measured relative fluorescent units in the following equation: […]
ROS levels were evaluated together with cell viability because it is possible to get a false negative for ROS if treatment is so toxic, that at the time of assay, cells are dead (and there are no longer any detectable ROS). Decrease in ROS levels is meaningful if cells are still viable.

[3] = target: T1, tyrosinase in Human primary melanocytes (Homo sapiens, UniProt P14679); test: Tyrosinase Activity Assay (in situ, melanocyte lysate, DOPA/MBTH); settings: Table 4, GAP where present: glutamine 32 uM, cystine 40 uM, glycine 129 uM, 72 hours
T1 construct: host or cells: Human primary melanocytes
T1 sequence (P14679 19-529): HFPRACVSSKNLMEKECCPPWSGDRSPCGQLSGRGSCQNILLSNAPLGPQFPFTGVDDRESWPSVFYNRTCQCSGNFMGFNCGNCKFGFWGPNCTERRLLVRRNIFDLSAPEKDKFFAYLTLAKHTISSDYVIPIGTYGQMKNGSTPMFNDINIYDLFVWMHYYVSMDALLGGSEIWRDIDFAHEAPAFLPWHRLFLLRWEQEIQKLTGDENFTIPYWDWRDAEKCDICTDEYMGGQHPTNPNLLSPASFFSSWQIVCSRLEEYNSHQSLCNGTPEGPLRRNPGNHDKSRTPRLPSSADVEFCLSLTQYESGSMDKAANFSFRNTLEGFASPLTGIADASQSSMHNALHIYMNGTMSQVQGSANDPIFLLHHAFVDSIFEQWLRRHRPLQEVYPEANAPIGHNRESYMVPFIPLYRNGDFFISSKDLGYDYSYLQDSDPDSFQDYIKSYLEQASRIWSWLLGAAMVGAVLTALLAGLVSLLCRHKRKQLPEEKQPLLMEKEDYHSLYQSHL
Method: Human primary melanocytes (Cascade Biologics, now ThermoFisher Scientific) were grown in melanocytes growth medium (MGM) with human melanocyte growth supplement (both media components from ThermoFisher Scientific). Melanocytes were seeded at 1×10^4 cells/well in a 96 wells plate and cultures left undisturbed for 24 hrs in a 5% CO2 humidified incubator at 37° C. At 24 hrs post-seeding, cells were treated with GAP amino acids (consisting of glutamine (32 uM), cystine (40 uM), glycine (129 uM)) alone or in combination with test reagents described above, and left undisturbed for another 72 hours. Subsequently, cell viability was assessed and the cells were then lysed and progressed for determination of in situ tyrosinase activity. Cultures were rinsed twice with 1× phosphate-buffered saline and lysed with 40 uL of 0.5% TritonX 100 for 1 hour on an ice bed. In situ tyrosinase activity was visualized by addition of 60 μl of 50 mM potassium phosphate buffer (pH 6.8) containing 2 mM DOPA (3,4 dihydroxy phenylalanine) and 4 mM MBTH reagent (3-Methyl-2-Benzothiazolinone hydrazone hydrochloride) for 1 hour at 37° C. The reaction was stopped by the addition of 100 uL of ice-cold 10% tricholoracetic acid and then centrifuged at approximately 300 g for 10 minutes at 4° C. The soluble supernatant was separated from the pellet and the optical density read in a TECAN plate-reader (540 nm filter). The spectrophotometric optical density at 540 nm for untreated cells (no active) is considered as 100% tyrosinase activity. Tyrosinase activity is expressed after correction for cell numbers (activity/viability) and represented as % control.

[4] = Table 1A, HR 20 uM where present, + menadione 25 uM

- inhibition at 5 µM ([3]; resorcinol (HR or ER) 5 uM): 67%
- inhibition at 10 µM ([3]; resorcinol (HR or ER) 10 uM): 68%
SMILES: CCc1ccc(O)cc1O [ER, 4-ethylresorcinol]
- Cell viability (% of vehicle of control) (Human Keratinocytes [1]; ER 10 uM + menadione): 36.6%
- Cell viability (% of vehicle of control) (Human Keratinocytes [1]; ER 20 uM + menadione): 39.8%
- % Protection (improvement vs. vehicle control + menadione) (Aged Human Keratinocytes; Table 2C, ER 40 uM + menadione): 0%
- Glutathione Synthesis, Mean (uM glutathione) (Aged Human Keratinocytes; Table 2C, ER 40 uM + menadione): 0.36 µM
- % Protection (improvement vs. vehicle control + menadione) (Aged Human Keratinocytes; Table 2C, ER 50 uM + menadione): −4%
- Glutathione Synthesis, Mean (uM glutathione) (Aged Human Keratinocytes; Table 2C, ER 50 uM + menadione): 0.25 µM
- % Protection (improvement vs. vehicle control + menadione) (Aged Human Keratinocytes; Table 2C, ER 60 uM + menadione): −1%
- Glutathione Synthesis, Mean (uM glutathione) (Aged Human Keratinocytes; Table 2C, ER 60 uM + menadione): 0.34 µM
- synergistic increase in GSH synthesis, combination with GAP amino acids vs either alone (Aged Human Keratinocytes): synergistic increase
- Mean ROS production (% of vehicle control) (Human Keratinocytes [2]; Table 2H, ER 10 uM + menadione): 287.5%
- Mean ROS production (% of vehicle control) (Human Keratinocytes [2]; Table 2H, ER 20 uM + menadione): 308.3%
- synergistic decrease in ROS production, combination with GAP amino acids vs either alone (Human Keratinocytes [2]): not observed

- Tyrosinase activity inhibition, Mean of % Inhibition ([3]; resorcinol (HR or ER) 5 uM): 63^1%
- Tyrosinase activity inhibition, Mean of % Inhibition ([3]; resorcinol (HR or ER) 10 uM): 71^1%
SMILES: CCCCCCc1ccc(O)cc1O [HR, 4-hexylresorcinol]
- % Protection (improvement vs vehicle control + menadione), cell viability (Human Keratinocytes [1]; HR 10 uM + menadione): 18.85^3%
- Cell viability (% of control) (Human Keratinocytes [1]; HR 10 uM + menadione): 65.1^3%
- % Protection (improvement vs vehicle control + menadione), cell viability (Human Keratinocytes [1]; HR 20 uM + menadione): −79.00%
- Cell viability (% of control) (Human Keratinocytes [1]; HR 20 uM + menadione): 11.0%
- % Protection (improvement vs. vehicle control + menadione) (Aged Human Keratinocytes; [4]): 22^1%
- Glutathione Synthesis, Mean (uM glutathione) (Aged Human Keratinocytes; [4]): 0.46^1 uM
- % Protection (improvement vs. vehicle control + menadione) (Aged Human Keratinocytes; Table 2A, HR 10 uM + menadione): 4%
- Glutathione Synthesis, Mean (uM glutathione) (Aged Human Keratinocytes; Table 2A, HR 10 uM + menadione): 0.24 µM
- % Protection (improvement vs. vehicle control + menadione) (Aged Human Keratinocytes; Table 2A, HR 20 uM + menadione): 5%
- Glutathione Synthesis, Mean (uM glutathione) (Aged Human Keratinocytes; Table 2A, HR 20 uM + menadione): 0.28 µM
- % Protection (improvement vs. vehicle control + menadione) (Aged Human Keratinocytes; Table 2A, HR 40 uM + menadione): 1%
- Glutathione Synthesis, Mean (uM glutathione) (Aged Human Keratinocytes; Table 2A, HR 40 uM + menadione): 0.19 µM
- % Protection (improvement vs. vehicle control + menadione) (Aged Human Keratinocytes; Table 2A, HR 60 uM + menadione): 0%
- Glutathione Synthesis, Mean (uM glutathione) (Aged Human Keratinocytes; Table 2A, HR 60 uM + menadione): 0.14 µM
- synergistic increase in GSH synthesis, combination with GAP amino acids vs either alone (Aged Human Keratinocytes): synergistic increase
- % protection (improvement vs vehicle control + menadione), ROS (Human Keratinocytes [2]; Table 2D, HR 10 uM + menadione): 69.6^3%
- Mean ROS production (% of vehicle control) (Human Keratinocytes [2]; Table 2D, HR 10 uM + menadione): 153.4^3%
- % protection (improvement vs vehicle control + menadione), ROS (Human Keratinocytes [2]; Table 2D, HR 20 uM + menadione): 76.49^3%
- Mean ROS production (% of vehicle control) (Human Keratinocytes [2]; Table 2D, HR 20 uM + menadione): 118.7^3%
- synergistic decrease in ROS production, combination with GAP amino acids vs either alone (Human Keratinocytes [2]): synergistic decrease
